The values below come from ChEMBL document CHEMBL1128057, “Aryl-fused sphingolipids as novel PKC inhibitors with topical antiinflammatory activity” (Bioorg Med Chem Lett, 1995).

The target of test [1] is Protein kinase C (PKC). Nature of the test: Inhibition of Protein kinase C of rat brain using phosphatidyl serine: di-acyl glycerol (2:1).
For test [2], the target named is Protein kinase C (PKC). Nature of the test: Inhibitory concentration required against Protein kinase C (isolated from rat brain) in PKC assay performed with 4 ug phosphatidyl serine:diacylglycerol (2:1).
The species named for the next test is Mus musculus. The test can be described thus: Anti-inflammatory activity on the mice ears using antiinflammatory assay (TPAEE). The format is functional.

As a reminder, the IC50 is the point on the concentration scale where inhibition reaches its midpoint. The low end stands for greater potency, the high end for weaker potency. Regarding `CCCCCCCCCCCCC/C=C/[C@@H](O)[C@@H](N)CO` [SPHINGOSINE], the results for the IC50 against Protein kinase C (PKC) [1] and against Protein kinase C (PKC) [2] were 23.4 µM and 6.7 µM, respectively. This compound also registered an ED50 in the test listed under Mus musculus of 0.31 mg ear-1.

On Protein kinase C (PKC) [2], `CCCCCCCCCC#Cc1cccc([C@@H](O)[C@@H](N)CO)n1` showed an IC50 of 10 µM.

Consider `CCCCCCCCCCCCc1csc([C@@H](O)[C@@H](N)CO)c1`, for which the IC50 against Protein kinase C (PKC) [1] is 13.3 µM.

`CCCCCCCCCCCCc1ccc([C@@H](O)[C@@H](N)CO)s1`: the IC50 at Protein kinase C (PKC) [2] came to 14 µM.

With `CCCCCCCCCC/C=C/c1csc([C@@H](O)[C@@H](N)CO)c1`, the half-inhibitory concentration (IC50) against Protein kinase C (PKC) [2] turned out to be 5 µM.

Turning to `CCCCCCCCCCCOc1cccc([C@@H](O)[C@@H](N)CO)c1`, the IC50 against Protein kinase C (PKC) [1] turned out to be 24.1 µM.

The compound `CCCCCCCCCCCC#Cc1ccc([C@@H](O)[C@@H](N)CO)s1` yielded an IC50 on Protein kinase C (PKC) [2] of 3.5 µM.

On to `CCCCCCCC#Cc1ccc([C@@H](O)[C@@H](N)CO)s1`, for which, on Protein kinase C (PKC) [2], the IC50 stood at 19.9 µM.

In the case of `CCCCCCCCCCC#Cc1ccc([C@@H](O)[C@@H](N)CO)s1`, the IC50 against Protein kinase C (PKC) [1] came out at 26.2 µM; against Protein kinase C (PKC) [2] it was 2.9 µM. For the same compound, in the test filed under Mus musculus, the ED50 turned out to be 0.24 mg ear-1.

On Protein kinase C (PKC) [2], `N[C@@H](CO)[C@H](O)c1cccc(C#CCCCCCc2ccccc2)n1` gave a half-maximal inhibitory concentration (IC50) of 15.9 µM.

On to `CCCCCCCCCCCC(=O)c1cccc([C@@H](O)[C@@H](N)CO)c1`, for which, at Protein kinase C (PKC) [1], the IC50 is 20.7 µM.

In turn, `CCCCCCCCCCCCc1cccc([C@@H](O)[C@@H](N)CO)n1` returned an IC50 at Protein kinase C (PKC) [2] of 10.9 µM.

With `CCCCCCCCCCCC(=O)c1csc([C@@H](O)[C@@H](N)CO)c1`, on Protein kinase C (PKC) [1], the IC50 worked out at 22.4 µM.

In the case of `CCCCCCCCCCCCc1cccc([C@@H](O)[C@@H](N)CO)c1`, the IC50 against Protein kinase C (PKC) [1] is 17.3 µM; against Protein kinase C (PKC) [2], 3.7 µM.

The compound `CCCCCCCCCCC#Cc1cc([C@@H](O)[C@@H](N)CO)cs1` gave an IC50 on Protein kinase C (PKC) [1] of 34.5 µM.

On to `CCCCCCCCc1cccc([C@@H](O)[C@@H](N)CO)n1`, for which, at Protein kinase C (PKC) [2], the IC50 is greater than 100 µM.

In the case of `CCCCCCCCCCCCc1cc([C@@H](O)[C@@H](N)CO)on1`, the IC50 on Protein kinase C (PKC) [2] stood at 9.1 µM.

`CCCCCCCCCCCCCCCCc1cccc([C@@H](O)[C@@H](N)CO)n1`: the IC50 at Protein kinase C (PKC) [2] is 4.5 µM.

In turn, `CCCCCCCCCCCC(=O)c1ccc([C@@H](O)[C@@H](N)CO)s1` gave an IC50 on Protein kinase C (PKC) [1] of 22.4 µM.

Compound `N[C@@H](CO)[C@H](O)c1ccc(C#CCCCCc2ccccc2)s1` came in with an IC50 against Protein kinase C (PKC) [2] of 36 µM.

`CCCCCCCCCCc1cccc([C@@H](O)[C@@H](N)CO)n1` came in with an IC50 on Protein kinase C (PKC) [2] of 30.5 µM.

`CCCCCCCCCCC#Cc1csc([C@@H](O)[C@@H](N)CO)n1` yielded an IC50 against Protein kinase C (PKC) [1] of 15.2 µM.

`CCCCCCCCCCCc1cccc([C@@H](O)[C@@H](N)CO)n1`: the IC50 against Protein kinase C (PKC) [2] was found to be 10 µM.

As for `CCCCCCCCCCC#Cc1cccc([C@@H](O)[C@@H](N)CO)c1`, the IC50 was 22.2 µM at Protein kinase C (PKC) [1] and 2.7 µM on Protein kinase C (PKC) [2]. The compound further yielded an ED50 in the test listed under Mus musculus of 0.34 mg ear-1.

In turn, `CCCCCCCCC#Cc1cccc([C@@H](O)[C@@H](N)CO)n1` showed an IC50 against Protein kinase C (PKC) [2] of 13.3 µM.

On to `CCCCCCCCCc1ccc([C@@H](O)[C@@H](N)CO)s1`, for which the IC50 against Protein kinase C (PKC) [2] came out at 10 µM.

Compound `CCCCCCCCCC#Cc1cccc([C@@H](O)[C@@H](N)CO)c1` gave a 50% inhibitory concentration (IC50) at Protein kinase C (PKC) [2] of 9.7 µM.

`CCCCCCCCCC#Cc1ccc([C@@H](O)[C@@H](N)CO)s1` registered an IC50 on Protein kinase C (PKC) [2] of 4.7 µM.

In the case of `CCCCCCCCCCC#Cc1csc([C@@H](O)[C@@H](N)CO)c1`, the results for the IC50 against Protein kinase C (PKC) [1] and on Protein kinase C (PKC) [2] were 23.7 µM and 10.8 µM, respectively. The ED50 in the test listed under Mus musculus is 0.23 mg ear-1.

Consider `CCCCCCCCCCc1cc([C@@H](O)[C@@H](N)CO)on1`, for which the half-inhibitory concentration (IC50) at Protein kinase C (PKC) [2] was 43.9 µM.
